From patent US9125913B2, “Bcl-2-selective apoptosis-inducing agents for the treatment of cancer and immune diseases” (AbbVie Inc., priority 2008, dated 2015)

Test system: GST-Bcl-2
Assay: TR-FRET binding assay, Bcl-2
Conditions: TR-FRET Ki values
Summary of the method: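 Compounds serially diluted in DMSO from 50 μM (2× starting concentration, 10% DMSO), mixed with GST-tagged protein, F-Bak peptide probe and Tb-labeled antibody, incubated 3 h at room temperature.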

Question: With `CC1(C)CCC(CN2CCN(c3ccc(C(=O)NS(=O)(=O)c4cnc(NCC5(F)CCOCC5)c(Cl)c4)c(Oc4cccc5[nH]ncc45)c3)CC2)=C(c2ccc(Cl)cc2)C1` [EXAMPLE 413, N-[(5-chloro-6-{[(4-fluorotetrahydro-2H-pyran-4-yl)methyl]amino}pyridin-3-yl)sulfonyl]-4-(4-{[2-(4-chlorophenyl)-4,4-dimethylcyclohex-1-en-1-yl]methyl}piperazin-1-yl)-2-(1H-indazol-4-yloxy)benzamide] as the compound, how does the “Binding selectivity ratio (Bcl-XL Ki/Bcl-2 Ki)” value (shortened to “Binding selectivity ratio”) read?
Answer: 803.8

Question: With `CC1(C)CCC(CN2CCN(c3ccc(C(=O)NS(=O)(=O)c4cnc(OCCN5CCOCC5)c(C#N)c4)c(Oc4ccc5[nH]ccc5c4)c3)CC2)=C(c2ccc(Cl)cc2)C1` [EXAMPLE 388, 4-(4-{[2-(4-chlorophenyl)-4,4-dimethylcyclohex-1-en-1-yl]methyl}piperazin-1-yl)-N-{[5-cyano-6-(2-morpholin-4-ylethoxy)pyridin-3-yl]sulfonyl}-2-(1H-indol-5-yloxy)benzamide] as the compound, how does the “Binding selectivity ratio” value read?
Answer: 185.1

Question: Which “Binding selectivity ratio” value does the source give for `O=C(NS(=O)(=O)c1ccc(NCC2CCOCC2)c([N+](=O)[O-])c1)c1ccc(N2CCN(CC3=C(c4ccc(Cl)cc4)CCC(N4CCOCC4)C3)CC2)cc1Oc1ccc2[nH]ccc2c1` (centres unmarked) [EXAMPLE 249, 4-(4-{[2-(4-chlorophenyl)-5-morpholin-4-ylcyclohex-1-en-1-yl]methyl}piperazin-1-yl)-2-(1H-indol-5-yloxy)-N-({3-nitro-4-[(tetrahydro-2H-pyran-4-ylmethyl)amino]phenyl}sulfonyl)benzamide] here?
Answer: >7302.0

Question: For `CN(C)CCCNc1ccc(S(=O)(=O)NC(=O)c2ccc(N3CCN(CC4=C(c5ccc(Cl)cc5)CC(C)(C)CC4)CC3)cc2Oc2ccc3[nH]ccc3c2)cc1S(=O)(=O)C(F)(F)Cl` [Example 67, N-[(3-{[chloro(difluoro)methyl]sulfonyl}-4-{[3-(dimethylamino)propyl]amino}phenyl)sulfonyl]-4-(4-{[2-(4-chlorophenyl)-4,4-dimethylcyclohex-1-en-1-yl]methyl}piperazin-1-yl)-2-(1H-indol-5-yloxy)benzamide], which “Binding selectivity ratio” value is on record?
Answer: >2.3

Question: With `O=C(NS(=O)(=O)c1ccc(NCC2CCOCC2)c([N+](=O)[O-])c1)c1ccc(N2CCN(CC3=C(c4ccc(Cl)cc4)CCN(CCCO)C3)CC2)cc1Oc1cccc2[nH]ccc12` [EXAMPLE 355, 4-(4-{[4-(4-chlorophenyl)-1-(3-hydroxypropyl)-1,2,5,6-tetrahydropyridin-3-yl]methyl}piperazin-1-yl)-2-(1H-indol-4-yloxy)-N-({3-nitro-4-[(tetrahydro-2H-pyran-4-ylmethyl)amino]phenyl}sulfonyl)benzamide] as the compound, how does the “Binding selectivity ratio” value read?
Answer: >5489.5

Question: For `CC1(C)CCC(CN2CCN(c3ccc(C(=O)NS(=O)(=O)c4ccc(NC5(CO)CCOCC5)c([N+](=O)[O-])c4)c(Oc4cccc5[nH]ccc45)c3)CC2)=C(c2ccc(Cl)cc2)C1` [EXAMPLE 241, 4-(4-{[2-(4-chlorophenyl)-4,4-dimethylcyclohex-1-en-1-yl]methyl}piperazin-1-yl)-N-[(4-{[4-(hydroxymethyl)tetrahydro-2H-pyran-4-yl]amino}-3-nitrophenyl)sulfonyl]-2-(1H-indol-4-yloxy)benzamide], which “Binding selectivity ratio” value is on record?
Answer: >108.3

Question: With `CN1CCN(Nc2ccc(S(=O)(=O)NC(=O)c3ccc(N4CCN(CC5=C(c6ccc(Cl)cc6)CCC(O)C5)CC4)cc3Oc3ccc4[nH]ccc4c3)cc2[N+](=O)[O-])CC1` (centres unmarked) [EXAMPLE 226, 4-(4-{[2-(4-chlorophenyl)-5-hydroxycyclohex-1-en-1-yl]methyl}piperazin-1-yl)-2-(1H-indol-5-yloxy)-N-({4-[(4-methylpiperazin-1-yl)amino]-3-nitrophenyl}sulfonyl)benzamide] as the compound, how does the “Binding selectivity ratio” value read?
Answer: 577.7

Question: With `O=C(NS(=O)(=O)c1ccc(NCC2CCOCC2)c(S(=O)(=O)C(F)(F)F)c1)c1ccc(N2CCN(Cc3ccccc3-c3ccc(Cl)cc3)CC2)cc1Oc1ccc2ccccc2c1` [Example 37, 4-{4-[(4′-chloro-1,1′-biphenyl-2-yl)methyl]piperazin-1-yl}-2-(2-naphthyloxy)-N-({4-[(tetrahydro-2H-pyran-4-ylmethyl)amino]-3-[(trifluoromethyl)sulfonyl]phenyl}sulfonyl)benzamide] as the compound, how does the “Binding selectivity ratio” value read?
Answer: 95.7

Question: `COc1ccc(S(=O)(=O)NC(=O)c2ccc(N3CCN(Cc4ccccc4-c4ccc(Cl)cc4)CC3)cc2Oc2ccccc2)cc1` [Example 60, 4-{4-[(4′-chloro-1,1′-biphenyl-2-yl)methyl]piperazin-1-yl}-N-[(4-methoxyphenyl)sulfonyl]-2-phenoxybenzamide] was tested. Which “Binding selectivity ratio” value did it give?
Answer: >34.9

Question: Which “Binding selectivity ratio” value does the source give for `CC1(C)CCC(CN2CCN(c3ccc(C(=O)NS(=O)(=O)c4cccc(C(=O)NCC5CCOCC5)c4)c(Oc4ccc5[nH]ccc5c4)c3)CC2)=C(c2ccc(Cl)cc2)C1` [EXAMPLE 345, 4-(4-{[2-(4-chlorophenyl)-4,4-dimethylcyclohex-1-en-1-yl]methyl}piperazin-1-yl)-2-(1H-indol-5-yloxy)-N-[(3-{[(tetrahydro-2H-pyran-4-ylmethyl)amino]carbonyl}phenyl)sulfonyl]benzamide] here?
Answer: >575.9

Question: With `CC1(C)CCC(CN2CCN(c3ccc(C(=O)NS(=O)(=O)c4ccc(OCC5(F)CCOCC5)c([N+](=O)[O-])c4)c(Oc4cccc5[nH]ccc45)c3)CC2)=C(c2ccc(Cl)cc2)C1` [EXAMPLE 306, 4-(4-{[2-(4-chlorophenyl)-4,4-dimethylcyclohex-1-en-1-yl]methyl}piperazin-1-yl)-N-({4-[(4-fluorotetrahydro-2H-pyran-4-yl)methoxy]-3-nitrophenyl}sulfonyl)-2-(1H-indol-4-yloxy)benzamide] as the compound, how does the “Binding selectivity ratio” value read?
Answer: 622

Question: `CN(C)C1(CNc2ccc(S(=O)(=O)NC(=O)c3ccc(N4CCN(CC5=C(c6ccc(Cl)cc6)CC(C)(C)CC5)CC4)cc3Oc3ccc4[nH]ccc4c3)cc2[N+](=O)[O-])CCOCC1` [EXAMPLE 207, 4-(4-{[2-(4-chlorophenyl)-4,4-dimethylcyclohex-1-en-1-yl]methyl}piperazin-1-yl)-N-{[4-({[4-(dimethylamino)tetrahydro-2H-pyran-4-yl]methyl}amino)-3-nitrophenyl]sulfonyl}-2-(1H-indol-5-yloxy)benzamide] was tested. Which “Binding selectivity ratio” value did it give?
Answer: >3021.3

Question: `CC1(C)CCC(CN2CCN(c3ccc(C(=O)NS(=O)(=O)c4ccc(NC5CCN(C6CCOCC6)CC5)c([N+](=O)[O-])c4)c(Oc4ccc5[nH]ccc5c4)c3)CC2CO)=C(c2ccc(Cl)cc2)C1` (centres unmarked) [EXAMPLE 219, 4-[4-{[2-(4-chlorophenyl)-4,4-dimethylcyclohex-1-en-1-yl]methyl}-3-(hydroxymethyl)piperazin-1-yl]-2-(1H-indol-5-yloxy)-N-({3-nitro-4-[(1-tetrahydro-2H-pyran-4-ylpiperidin-4-yl)amino]phenyl}sulfonyl)benzamide] was tested. Which “Binding selectivity ratio” value did it give?
Answer: 126.8

Question: Which “Binding selectivity ratio” value does the source give for `CC1(C)CCC(c2ccc(Cl)cc2)=C(CN2CCN(c3ccc(C(=O)NS(=O)(=O)c4ccc(NCCCN5CCOCC5)c([N+](=O)[O-])c4)c(Oc4ccccc4)c3)CC2)C1` [Example 19, 4-(4-{[2-(4-chlorophenyl)-5,5-dimethylcyclohex-1-en-1-yl]methyl}piperazin-1-yl)-N-({4-[(3-morpholin-4-ylpropyl)amino]-3-nitrophenyl}sulfonyl)-2-phenoxybenzamide] here?
Answer: 23.6
